From PubChem BioAssay AID330 (DTP/NCI, 2004)
Where “and” joins values, the source holds several entries; their conditions need not be identical. Identical values can stand only once. Toxic doses and inconclusive results are not listed. The calls were made as follows: active = survival T/C of 150% or more; inactive = T/C below 125% in these data.

Tested on: P388 leukemia ip, CD2F1 mice, survival T/C
Assay: NCI In Vivo Anticancer Drug Screen. Data for tumor model P388 Leukemia (intraperitoneal) in CD2F1 (CDF1) mice
Settings: endpoint: median survival time, higher = longer survival
Summary of the method: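 Mice carrying the transplanted tumor received test compound or vehicle. Survival was recorded in each group, and the value is the treated-group measurement divided by that of the vehicle-treated control group.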

[1] = dose: 100.0 mg/kg/injection, schedule: Q04DX003 (ip), vehicle: saline with Tween-80
[2] = dose: 200.0 mg/kg/injection, schedule: Q04DX003 (ip), vehicle: saline with Tween-80
[3] = dose: 50.0 mg/kg/injection, schedule: Q01DX009 (ip), vehicle: saline with Tween-80
[4] = dose: 100.0 mg/kg/injection, schedule: Q01DX009 (ip), vehicle: saline with Tween-80
[5] = dose: 200.0 mg/kg/injection, schedule: Q01DX009 (ip), vehicle: saline with Tween-80
[6] = dose: 50.0 mg/kg/injection, schedule: Q01DX005 (ip), vehicle: saline with Tween-80
[7] = dose: 100.0 mg/kg/injection, schedule: Q01DX005 (ip), vehicle: saline with Tween-80
[8] = dose: 200.0 mg/kg/injection, schedule: Q01DX005 (ip), vehicle: saline with Tween-80
[9] = dose: 200.0 mg/kg/injection, schedule: Q01DX009 (ip), vehicle: saline

Measured: T/C

CCOC1CC(C)(O)Cc2cc3c(c(O)c21)C(=O)c1c(O)cc2c(c1C3=O)OC1OC2(C)C(O)C(N(C)C)C1O (centres undefined)
inactive: dose: 13.0 mg/kg/injection, schedule: Q01DX009 (ip), vehicle: other 93 % of control | dose: 20.0 mg/kg/injection, schedule: Q01DX009 (ip), vehicle: other 87 % of control
active: dose: 2.5 mg/kg/injection, schedule: Q01DX009 (ip), vehicle: other 150 % of control and 156 % of control | dose: 3.25 mg/kg/injection, schedule: Q01DX009 (ip), vehicle: other 151 % of control | dose: 5.0 mg/kg/injection, schedule: Q01DX009 (ip), vehicle: other 166 % of control and 207 % of control | dose: 6.5 mg/kg/injection, schedule: Q01DX009 (ip), vehicle: other 163 % of control | dose: 10.0 mg/kg/injection, schedule: Q01DX009 (ip), vehicle: other 178 % of control and 205 % of control

CC1CCC2(OC1)OC1CC3C4CCC5CC(O)CCC5(C)C4CCC3(C)C1C2C (centres undefined)
inactive: dose: 10.0 mg/kg/injection, schedule: Q01DX009 (ip), vehicle: Klucel (hydroxypropylcellulose) (HPC) 108 % of control | dose: 20.0 mg/kg/injection, schedule: Q01DX009 (ip), vehicle: Klucel (hydroxypropylcellulose) (HPC) 117 % of control | dose: 40.0 mg/kg/injection, schedule: Q01DX009 (ip), vehicle: Klucel (hydroxypropylcellulose) (HPC) 119 % of control

CCOc1c(N=Nc2ccc(O)cc2)c(C)nn1C(=S)S
inactive: dose: 60.0 mg/kg/injection, schedule: Q01DX005 (ip), vehicle: Klucel + Tween-80 115 % of control | dose: 120.0 mg/kg/injection, schedule: Q01DX005 (ip), vehicle: Klucel + Tween-80 115 % of control | dose: 240.0 mg/kg/injection, schedule: Q01DX005 (ip), vehicle: Klucel + Tween-80 118 % of control

CCCCCCCCCCCCCCCCCCOP(=O)(CC(=O)NCc1cc(C(C)(C)C)c(O)c(C(C)(C)C)c1)OCCCCCCCCCCCCCCCCCC
inactive: dose: 12.5 mg/kg/injection, schedule: Q04DX003 (ip), vehicle: saline with Tween-80 96 % of control | dose: 25.0 mg/kg/injection, schedule: Q04DX003 (ip), vehicle: saline with Tween-80 101 % of control | dose: 50.0 mg/kg/injection, schedule: Q04DX003 (ip), vehicle: saline with Tween-80 92 % of control | [1] 86 % of control | [2] 100 % of control

O=C(O)C(CCc1nc2ccccc2[nH]1)NS(=O)(=O)c1ccccc1 (centres undefined)
inactive: dose: 12.5 mg/kg/injection, schedule: Q01DX009 (ip), vehicle: saline with Tween-80 115 % of control | dose: 25.0 mg/kg/injection, schedule: Q01DX009 (ip), vehicle: saline with Tween-80 95 % of control | [3] 103 % of control and 91 % of control | [4] 102 % of control | [5] 102 % of control

COC(=O)C1(C)C(=O)C=CC2(C)C1CC(O)C1(C)C2C(O)C(O)C2(C)C(c3ccoc3)CC3OC321 (centres undefined) (tested in a mixture with another compound)
inactive: dose: 0.75 mg/kg/injection, schedule: Q01DX005 (ip), vehicle: Klucel (hydroxypropylcellulose) (HPC) 102 % of control | dose: 1.5 mg/kg/injection, schedule: Q01DX005 (ip), vehicle: Klucel (hydroxypropylcellulose) (HPC) 96 % of control | dose: 3.0 mg/kg/injection, schedule: Q01DX005 (ip), vehicle: Klucel (hydroxypropylcellulose) (HPC) 96 % of control | dose: 6.0 mg/kg/injection, schedule: Q01DX005 (ip), vehicle: Klucel (hydroxypropylcellulose) (HPC) 99 % of control | dose: 12.0 mg/kg/injection, schedule: Q01DX005 (ip), vehicle: Klucel (hydroxypropylcellulose) (HPC) 103 % of control

CCCCCCCCCCN(CCCCCCCCCC)C(=O)C(C)OC(C)=O (centres undefined)
inactive: [6] 98 % of control | [7] 101 % of control | [8] 104 % of control

Nc1nc(-c2ccccc2)nc2sc3c(c12)CCCC3
inactive: dose: 50.0 mg/kg/injection, schedule: Q01DX005 (ip), vehicle: Klucel (hydroxypropylcellulose) (HPC) 104 % of control | dose: 100.0 mg/kg/injection, schedule: Q01DX005 (ip), vehicle: Klucel (hydroxypropylcellulose) (HPC) 106 % of control | dose: 200.0 mg/kg/injection, schedule: Q01DX005 (ip), vehicle: Klucel (hydroxypropylcellulose) (HPC) 103 % of control

Nc1cc2c(c[n+](Cc3ccccc3)c3ccccc23)c2ccccc12
inactive: dose: 0.2 mg/kg/injection, schedule: Q04DX003 (ip), vehicle: water 105 % of control | dose: 0.39 mg/kg/injection, schedule: Q04DX003 (ip), vehicle: water 102 % of control | dose: 0.78 mg/kg/injection, schedule: Q04DX003 (ip), vehicle: water 102 % of control | dose: 1.56 mg/kg/injection, schedule: Q04DX003 (ip), vehicle: water 105 % of control

CN(CCCl)C(=O)c1ccc([N+](=O)[O-])cc1
inactive: [3] 105 % of control | [4] 116 % of control | [5] 101 % of control

COc1ccc(N/C(=C/C#N)c2ccccc2)cc1
inactive: dose: 100.0 mg/kg/injection, schedule: Q01DX001 (ip), vehicle: saline with Tween-80 100 % of control | dose: 200.0 mg/kg/injection, schedule: Q01DX001 (ip), vehicle: saline with Tween-80 99 % of control | dose: 400.0 mg/kg/injection, schedule: Q01DX001 (ip), vehicle: saline with Tween-80 95 % of control

O=C(O)CC(Cc1ncnc2c1ncn2C1OC(CO)C(O)C1O)C(=O)O (centres undefined)
inactive: dose: 100.0 mg/kg/injection, schedule: Q04DX003 (ip), vehicle: saline 100 % of control | dose: 200.0 mg/kg/injection, schedule: Q04DX003 (ip), vehicle: saline 99 % of control | dose: 400.0 mg/kg/injection, schedule: Q04DX003 (ip), vehicle: saline 99 % of control

CCCC(=O)c1ccc(C)cc1
inactive: [1] 104 % of control | [2] 104 % of control | dose: 400.0 mg/kg/injection, schedule: Q04DX003 (ip), vehicle: saline with Tween-80 86 % of control

CC1(C)C/C(=C2\COC(=O)C2=O)NN1c1ccccc1
inactive: [3] 106 % of control | [4] 99 % of control | [5] 105 % of control

CC(C)(C(=O)O)c1csc(-c2ccc(Cl)cc2)n1
inactive: [6] 98 % of control | [7] 102 % of control | [8] 93 % of control

O=NN(c1ccccc1)c1ccc([N+](=O)[O-])cc1
inactive: [3] 90 % of control | [4] 90 % of control

Nc1ccccc1-c1ccccc1[N+](=O)[O-]
inactive: dose: 50.0 mg/kg/injection, schedule: Q01DX009 (ip), vehicle: saline 95 % of control | dose: 100.0 mg/kg/injection, schedule: Q01DX009 (ip), vehicle: saline 96 % of control | [9] 95 % of control

O=C(CNC(=O)c1ccccc1)N/N=C/c1ccco1
inactive: dose: 60.0 mg/kg/injection, schedule: Q01DX005 (ip), vehicle: saline with Tween-80 95 % of control | dose: 120.0 mg/kg/injection, schedule: Q01DX005 (ip), vehicle: saline with Tween-80 101 % of control | dose: 240.0 mg/kg/injection, schedule: Q01DX005 (ip), vehicle: saline with Tween-80 100 % of control

Nc1nc(F)nc2c1ncn2C1OC(COP(=O)(O)O)C(O)C1O (centres undefined)
111 % of control and 215 % of control: dose: 200.0 mg/kg/injection, schedule: Q01DX009 (ip), vehicle: Klucel (hydroxypropylcellulose) (HPC)
active: dose: 100.0 mg/kg/injection, schedule: Q01DX009 (ip), vehicle: Klucel (hydroxypropylcellulose) (HPC) 153 % of control and 165 % of control | dose: 175.0 mg/kg/injection, schedule: Q01DX009 (ip), vehicle: saline 203 % of control and 213 % of control | [9] 222 % of control and 224 % of control | dose: 225.0 mg/kg/injection, schedule: Q01DX009 (ip), vehicle: saline 230 % of control and 233 % of control | dose: 250.0 mg/kg/injection, schedule: Q01DX009 (ip), vehicle: saline 236 % of control and 241 % of control | dose: 1500.0 mg/kg/injection, schedule: Q01DX001 (ip), vehicle: saline 155 % of control | dose: 1600.0 mg/kg/injection, schedule: Q04DX002 (ip), vehicle: saline 182 % of control
inactive: dose: 12.5 mg/kg/injection, schedule: Q01DX009 (ip), vehicle: Klucel (hydroxypropylcellulose) (HPC) 110 % of control | dose: 25.0 mg/kg/injection, schedule: Q01DX009 (ip), vehicle: Klucel (hydroxypropylcellulose) (HPC) 117 % of control | dose: 50.0 mg/kg/injection, schedule: Q01DX009 (ip), vehicle: Klucel (hydroxypropylcellulose) (HPC) 120 % of control | dose: 50.0 mg/kg/injection, schedule: Q04DX002 (ip), vehicle: saline 100 % of control | dose: 100.0 mg/kg/injection, schedule: Q04DX002 (ip), vehicle: saline 107 % of control | dose: 200.0 mg/kg/injection, schedule: Q04DX002 (ip), vehicle: saline 111 % of control and 117 % of control | dose: 400.0 mg/kg/injection, schedule: Q04DX002 (ip), vehicle: saline 123 % of control
